According to US12098154B2, “Inhibitors of cyclin-dependent kinases” (Dana-Farber Cancer Institute, Inc., priority 2015, dated 2024):
Like-named read-outs stand apart in the source and are kept apart here.

Columns and labels:
CDK7 = target: T1, CDK7 (Homo sapiens, UniProt P50613); assay: Pulldown assay with biotin-THZ1, blot for Cyclin H; type: cell-based; details: Jurkat cells treated with 1 uM or 200 nM
T1 construct: endogenous in cells; host or cells: Jurkat
Procedure: Compounds E9 and E17 were able to block pulldown of cyclin K at 1 μM and 200 nM. Specifically. […] Decreased pulldown of cyclin K with biotin-THZ1 indicated a loss of CDK12 binding.
(§1) 6 hours after treatment, cells were washed and harvested by resuspending in lysis buffer (50 mM Hepes pH 7.4, 150 mM NaCl, 1% NP-40, 5 mM EDTA, protease and phosphatase inhibitors) and lysing on ice 30 minutes. Lysates were cleared by centrifugation at 15,000 rpm 30 minutes. Biotin-labeled THZ1 was added to 1 uM to lysates and rotated at 4° C. overnight. Streptavidin-agarose beads were washed and 30 uL slurry was added to each lysate and rotated for 1 hour at 4° C. Beads were washed 5 times with lysis buffer and 50 uL 2×LDS buffer was added to each sample. Samples were boiled and equal volume of protein was loaded onto gel. Gel was transferred to nitrocellulose and blotted for Cyclin K and Cyclin H.

CDK12 and CDK13 = assay: KiNativ kinome profiling; type: binding; details: 1 μM, 6 hrs
Procedure: Jurkat cells were seeded at a density of 100 million cells/50 mL. Cells were treated with E9 (1 μM) or DMSO control for 6 hrs. Cells were washed twice with cold phosphate-buffered saline (PBS). PBS-washed cell pellets were flash frozen and subjected to KiNativt™ kinome profiling at ActivX Biosciences, Inc. according to their specifications using their desthiobiotin-ATP probe. Peptide sequences shown in Table A4 belong to the indicated kinase(s) and were detected by mass spectrometry (MS) under DMSO control conditions following enrichment for biotinylated proteins by streptavidin pulldown and subsequent proteolysis. Kinases labeled by the reactive desthiobiotin-ATP probe indicate that the kinase was accessible to desthiobiotin-ATP probe binding. Results shown are normalized to these paired DMSO controls and numbers represent the percentage (compared to DMSO control) of MS signal lost for sequences of an indicated kinase, eg—numbers approaching 100% indicate that test compound effectively out-competed the desthiobiotin ATP probe for binding to the kinase, resulting in decreased labeling and enrichment for peptides representing this kinase.

CDK12 = target: T2, CDK12 (Homo sapiens, UniProt Q9NYV4); assay: Pulldown assay with biotin-THZ1, blot for Cyclin K; type: cell-based; details: Jurkat cells treated with 1 uM or 200 nM
T2 construct: endogenous in cells; host or cells: Jurkat
Procedure: Specifically. […] Decreased pulldown of cyclin K with biotin-THZ1 indicated a loss of CDK12 binding.
as §1

CDK12/CCNK complex = CDK12/CCNK complex (Homo sapiens, UniProt Q9NYV4); assay: Electrospray ionization mass spectra of CDK12/CCNK complex after treatment; type: binding; details: 1 hr at room temperature
Description: The zero-charge mass spectra in the upper panel and inset is the result of deconvolution of the raw mass spectrum in the lower panel. A. CCNK. C, phosphorylated CDK12. D, CDK12.
The zero-charge mass spectra in the upper panel and inset is the result of deconvolution of the raw mass spectrum in the lower panel. A, CCNK. B, phosphorylated and E-9 labeled CDK12. C, E-9 labeled CDK12.

Jurkat cells [1] = assay: Growth assay with and without washout; type: cell-based; details: 1 uM, 4 hours treatment, assayed 68 hours after washout
Procedure: Cells were treated with each compound for 4 hours and either no washout (no washout) or had compound removed by washing cells with media (washout). Sixty-eight (68) hours after washout, the cells were assayed for antiproliferative effects. Error bars indicate +/−SD.
4 hours after treatment, cells were either not treated or washed three times with RPMI media to remove all compound. Cells were replated and allowed to grow for 68 hours. Cells were assayed using celltiter glo (Promega) to determine cell viability by measuring the amount of ATP present, which is an indicator of cell metabolic activity. Results are graphed as luminescent values (FIG. 1).

CDK2/CycA = CDK2/CycA (Homo sapiens, UniProt P24941); assay: CDK2/CycA inhibition (Tables A1, A2); type: biochemical
Jurkat cells [2] = assay: Jurkat proliferation assay (CellTiter-Glo); type: cell-based; details: for IC50: Homo sapiens, Jurkat
Procedure: (§2) Jurkat cells were seeded at a density of 25,000 cells/well in 96-well plates. Cells were then treated with the indicated compounds in a 10-pt dose escalation format from 1 nM to 10 μM or DMSO control for 72 hours. After 72 hours, the cells were assayed using CellTiter-Glo Luminescent Cell Viability Assay (Promega) to determine cell viability by measuring the amount of ATP present in each sample cell population, which is an indicator of cell metabolic activity. […] All data points were performed in biological triplicate. Error bars are +/−SD.
as §2, with “hrs.” for “hours.”, “hrs,” for “hours, the”

CDK9/CycT = CDK9/CycT (Homo sapiens, UniProt P50750); assay: CDK9/CycT inhibition (Tables A1, A2); type: biochemical
[3] = system: Pol II Ser2 phosphorylation and MCL1 levels; assay: Washout expression assay (western blot); type: cell-based; details: Jurkat cells, 1 uM, 4 hours, 6 hours
Procedure: 4 hours after treatment, cells were either not treated or washed three times with RPMI media to remove all compound. Cells were replated and allowed to grow for 6 hours. Cells were harvested, washed 3 times with PBS and resuspended in RIPA buffer (25 mM Tris-HCl (pH 7.6), 150 mM NaCl, 1% NP-40, 1% sodium deoxycholate, 0.1% SDS). Equal amount of protein was loaded onto gel and blotted for Pol II Ser2 (Millipore 04-1571), total pol II (Santa Cruz 17798), Tubulin (Cell Signaling 11H10) or MCL1 (Cell Signaling 4572S)

CDK7/CycH = CDK7/CycH (Homo sapiens, UniProt P50613); assay: CDK7/CycH inhibition (Tables A1, A2); type: biochemical
HAP1 cells = assay: HAP1 cell proliferation assay, wild type vs CDK12 C1039S/CDK13 C1017S; type: cell-based; details: 72 hrs proliferation
Procedure: Double mutant cells are 4-fold less sensitive to E17 compared to wild type cells indicating rescue of CDK12/13 inhibition-induced proliferation defects. HAP1 cells were seeded at a density of 12,000 cells/well in 96-well plates. Twenty-four hours later, cells were treated with the indicated compounds in a 10-pt dose escalation format from 1 nM to 10 μM or DMSO control for 72 hours. After 72 hours, the cells were assayed using CellTiter-Glo Luminescent Cell Viability Assay (Promega) to determine cell viability by measuring the amount of ATP present in each sample cell population, which is an indicator of cell metabolic activity. Results were graphed as fraction of the DMSO control at 72 hours. All data points were performed in biological triplicate. Error bars are +/−SD.
Genome Editing: The CRISPR/Cas9 system was used to mutate the endogenous CDK12 and CDK13 loci to encode for CDK12 C1039S and CDK13 C1017S, both of which are putative CDK12/13 inhibitor-refractory mutants. Target-specific oligonucleotides were cloned into pX330, which carries a codon-optimized version of Cas9 and was further modified to express GFP for identifying transfectants. […]

T1 sequence (P50613 2-346 limits assumed): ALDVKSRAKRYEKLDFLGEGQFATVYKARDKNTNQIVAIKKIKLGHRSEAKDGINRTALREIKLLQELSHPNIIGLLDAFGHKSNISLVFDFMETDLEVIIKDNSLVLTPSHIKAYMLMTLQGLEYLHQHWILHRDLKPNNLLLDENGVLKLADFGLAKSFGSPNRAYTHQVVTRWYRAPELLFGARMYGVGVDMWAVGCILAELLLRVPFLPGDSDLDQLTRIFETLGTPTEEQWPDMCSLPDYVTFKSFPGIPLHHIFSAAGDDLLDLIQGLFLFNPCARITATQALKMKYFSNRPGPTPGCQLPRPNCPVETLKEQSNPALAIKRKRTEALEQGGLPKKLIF
T1 sequence (P51946 whole entry partner): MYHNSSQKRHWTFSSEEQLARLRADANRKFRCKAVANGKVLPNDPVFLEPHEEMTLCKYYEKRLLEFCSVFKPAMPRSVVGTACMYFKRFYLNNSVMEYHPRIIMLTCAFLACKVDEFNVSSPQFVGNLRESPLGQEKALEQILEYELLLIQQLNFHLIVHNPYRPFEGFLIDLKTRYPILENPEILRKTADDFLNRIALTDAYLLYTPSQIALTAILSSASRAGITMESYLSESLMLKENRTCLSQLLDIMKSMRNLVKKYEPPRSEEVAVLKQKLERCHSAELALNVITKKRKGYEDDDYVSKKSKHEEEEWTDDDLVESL
T1 sequence (P51948 whole entry partner): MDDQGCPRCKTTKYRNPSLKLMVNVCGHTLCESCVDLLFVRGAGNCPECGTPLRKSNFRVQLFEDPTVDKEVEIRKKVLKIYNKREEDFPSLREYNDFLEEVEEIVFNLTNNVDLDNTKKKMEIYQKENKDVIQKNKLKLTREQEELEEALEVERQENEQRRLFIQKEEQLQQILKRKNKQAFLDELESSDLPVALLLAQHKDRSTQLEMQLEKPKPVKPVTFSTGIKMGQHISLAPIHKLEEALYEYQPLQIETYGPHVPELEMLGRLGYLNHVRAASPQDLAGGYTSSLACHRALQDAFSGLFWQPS
T2 sequence (Q9NYV4 whole entry): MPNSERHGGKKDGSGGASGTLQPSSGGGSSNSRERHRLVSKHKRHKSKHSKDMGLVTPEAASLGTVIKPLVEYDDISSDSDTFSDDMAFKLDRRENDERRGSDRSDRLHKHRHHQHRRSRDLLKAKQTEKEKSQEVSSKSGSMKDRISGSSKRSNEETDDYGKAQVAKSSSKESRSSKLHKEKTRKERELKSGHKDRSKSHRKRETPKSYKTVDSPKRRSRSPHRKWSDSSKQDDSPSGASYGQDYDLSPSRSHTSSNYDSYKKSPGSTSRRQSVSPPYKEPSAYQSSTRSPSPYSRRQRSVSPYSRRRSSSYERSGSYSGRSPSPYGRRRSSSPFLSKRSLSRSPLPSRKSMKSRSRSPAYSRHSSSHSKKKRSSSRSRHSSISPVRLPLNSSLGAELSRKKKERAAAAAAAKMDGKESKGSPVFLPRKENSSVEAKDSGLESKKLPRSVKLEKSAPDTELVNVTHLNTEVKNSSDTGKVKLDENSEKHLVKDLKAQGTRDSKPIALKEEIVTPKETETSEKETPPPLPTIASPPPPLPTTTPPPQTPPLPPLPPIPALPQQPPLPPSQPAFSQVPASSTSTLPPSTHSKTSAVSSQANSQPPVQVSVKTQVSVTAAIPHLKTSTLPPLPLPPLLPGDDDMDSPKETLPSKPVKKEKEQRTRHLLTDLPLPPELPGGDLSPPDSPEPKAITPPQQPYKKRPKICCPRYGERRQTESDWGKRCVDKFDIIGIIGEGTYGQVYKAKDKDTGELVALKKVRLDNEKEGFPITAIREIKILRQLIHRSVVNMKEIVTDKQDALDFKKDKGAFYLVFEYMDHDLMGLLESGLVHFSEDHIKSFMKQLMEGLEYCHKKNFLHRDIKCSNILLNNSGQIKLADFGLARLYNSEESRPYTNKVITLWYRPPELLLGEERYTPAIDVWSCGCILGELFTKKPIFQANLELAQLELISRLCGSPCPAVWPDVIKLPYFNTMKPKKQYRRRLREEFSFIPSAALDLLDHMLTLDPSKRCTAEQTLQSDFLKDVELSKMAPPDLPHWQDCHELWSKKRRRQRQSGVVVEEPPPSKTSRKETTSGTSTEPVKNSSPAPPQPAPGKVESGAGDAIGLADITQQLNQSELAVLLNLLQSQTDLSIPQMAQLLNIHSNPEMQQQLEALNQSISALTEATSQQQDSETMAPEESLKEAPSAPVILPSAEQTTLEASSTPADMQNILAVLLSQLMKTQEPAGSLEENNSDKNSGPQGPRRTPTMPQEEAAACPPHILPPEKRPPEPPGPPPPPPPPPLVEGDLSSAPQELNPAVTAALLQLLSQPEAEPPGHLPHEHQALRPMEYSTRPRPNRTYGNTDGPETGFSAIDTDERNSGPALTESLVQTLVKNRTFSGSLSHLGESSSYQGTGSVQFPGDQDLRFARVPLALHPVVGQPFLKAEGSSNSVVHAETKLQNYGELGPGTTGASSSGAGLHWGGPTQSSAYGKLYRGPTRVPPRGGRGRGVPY
T2 sequence (O75909 whole entry partner): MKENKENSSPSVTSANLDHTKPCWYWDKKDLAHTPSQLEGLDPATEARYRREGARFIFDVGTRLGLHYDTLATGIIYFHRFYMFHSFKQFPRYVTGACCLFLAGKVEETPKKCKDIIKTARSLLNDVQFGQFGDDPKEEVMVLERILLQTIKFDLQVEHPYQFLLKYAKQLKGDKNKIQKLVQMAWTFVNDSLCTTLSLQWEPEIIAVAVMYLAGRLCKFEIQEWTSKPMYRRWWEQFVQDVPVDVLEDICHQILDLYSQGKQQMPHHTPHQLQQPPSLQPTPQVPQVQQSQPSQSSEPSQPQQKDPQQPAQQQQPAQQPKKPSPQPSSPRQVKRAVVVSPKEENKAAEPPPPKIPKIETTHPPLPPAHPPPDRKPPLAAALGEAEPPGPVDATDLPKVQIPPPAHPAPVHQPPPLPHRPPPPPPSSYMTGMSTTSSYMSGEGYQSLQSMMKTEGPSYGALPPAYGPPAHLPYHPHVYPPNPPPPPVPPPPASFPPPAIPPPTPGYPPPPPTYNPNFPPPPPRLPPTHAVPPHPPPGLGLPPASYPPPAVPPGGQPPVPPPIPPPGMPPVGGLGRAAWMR
CDK9/CycT, sequence (P50750 whole entry): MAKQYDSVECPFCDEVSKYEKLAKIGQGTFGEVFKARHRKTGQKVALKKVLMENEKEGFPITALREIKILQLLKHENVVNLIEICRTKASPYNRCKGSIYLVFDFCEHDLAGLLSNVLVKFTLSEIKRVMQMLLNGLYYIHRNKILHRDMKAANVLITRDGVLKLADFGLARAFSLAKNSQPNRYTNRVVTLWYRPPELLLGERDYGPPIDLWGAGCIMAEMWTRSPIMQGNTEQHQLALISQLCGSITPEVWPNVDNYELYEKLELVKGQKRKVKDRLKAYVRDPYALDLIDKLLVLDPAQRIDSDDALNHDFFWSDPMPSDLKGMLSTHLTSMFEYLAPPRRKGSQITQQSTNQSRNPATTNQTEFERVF
CDK9/CycT, sequence (O60563 whole entry partner): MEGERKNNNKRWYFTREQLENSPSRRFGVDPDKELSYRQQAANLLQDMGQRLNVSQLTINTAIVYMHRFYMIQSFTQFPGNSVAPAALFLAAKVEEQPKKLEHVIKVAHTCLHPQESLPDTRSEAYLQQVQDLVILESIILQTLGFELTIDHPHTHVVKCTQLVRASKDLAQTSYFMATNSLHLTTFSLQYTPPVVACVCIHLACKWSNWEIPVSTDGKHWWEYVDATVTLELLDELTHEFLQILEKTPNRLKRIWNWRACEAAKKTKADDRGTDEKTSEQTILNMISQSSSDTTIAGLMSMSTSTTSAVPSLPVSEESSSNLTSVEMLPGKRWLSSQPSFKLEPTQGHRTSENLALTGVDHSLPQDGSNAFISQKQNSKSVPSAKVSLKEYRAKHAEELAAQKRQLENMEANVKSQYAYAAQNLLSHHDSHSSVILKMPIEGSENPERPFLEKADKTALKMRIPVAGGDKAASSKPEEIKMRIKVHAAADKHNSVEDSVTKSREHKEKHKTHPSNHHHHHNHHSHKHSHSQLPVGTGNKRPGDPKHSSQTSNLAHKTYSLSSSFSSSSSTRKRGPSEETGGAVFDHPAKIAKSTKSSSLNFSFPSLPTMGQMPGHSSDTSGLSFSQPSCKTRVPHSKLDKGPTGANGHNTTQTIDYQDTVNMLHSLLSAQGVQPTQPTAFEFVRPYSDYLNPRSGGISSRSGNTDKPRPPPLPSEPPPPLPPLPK
CDK7/CycH, sequence (P50613 whole entry): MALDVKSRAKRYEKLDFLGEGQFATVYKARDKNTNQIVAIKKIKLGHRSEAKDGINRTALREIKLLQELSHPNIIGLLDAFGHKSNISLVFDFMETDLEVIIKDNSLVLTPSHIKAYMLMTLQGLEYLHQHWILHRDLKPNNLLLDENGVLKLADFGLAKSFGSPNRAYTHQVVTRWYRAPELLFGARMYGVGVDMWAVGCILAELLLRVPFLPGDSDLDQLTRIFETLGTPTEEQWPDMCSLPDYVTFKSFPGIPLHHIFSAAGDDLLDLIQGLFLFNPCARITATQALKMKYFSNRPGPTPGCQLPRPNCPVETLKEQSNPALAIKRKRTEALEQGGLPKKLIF
CDK7/CycH, sequence (P51946 whole entry partner): as the sequence (P51946 whole entry partner) above
CDK12/CCNK complex, sequence (Q9NYV4 whole entry): as the sequence (Q9NYV4 whole entry) above
CDK12/CCNK complex, sequence (O75909 whole entry partner): as the sequence (O75909 whole entry partner) above

C=CC(=O)Nc1cccc(Nc2cc(N3CCCCC3CCO)nc3c(CC)cnn23)c1 (centres unmarked) [E-9(SB1-E-23), N-(3-(3-Ethyl-5-(2-(2-hydroxyethyl)piperidin-1-yl)pyrazolo[1,5-a]pyrimidin-7-ylamino)phenyl)acrylamide]
Pulldown of Cyclin H by biotin-THZ1 (CDK7 binding) (CDK7): not able to bind to CDK7 | Kinases bound in Jurkat cells (competition with desthiobiotin-ATP probe) (CDK12 and CDK13): binds predominantly CDK12 and CDK13 | Pulldown of Cyclin K by biotin-THZ1 (CDK12 binding) (CDK12): blocks the pulldown of Cyclin K | Labeling of CDK12 (mass shift) (CDK12/CCNK complex): Only the masses of CDK12 proteins shift after treatment | Inhibition of Jurkat cell viability with and without washout (Jurkat cells [1]): irreversibly inhibit Jurkat cell viability | IC50 (CDK2/CycA): 250 nM | Mode of inhibition of Jurkat T-ALL cell proliferation (Jurkat cells [2]): irreversiably inhibit | IC50 (Jurkat cells [2]; 72 h, read-out: IC50 on Jurkat T-ALL cell proliferation): < 100 nM | IC50 (Jurkat cells [2]; read-out: Jurkat IC50): 78.8 nM | IC50 (CDK9/CycT): 21.6 nM | Effect on Polymerase II Serine 2 phosphorylation and MCL1 levels with and without washout [3]: irreversible effect | IC50 (CDK7/CycH): 1090 nM

C=CC(=O)Nc1cccc(Nc2nc(N[C@H]3CC[C@H](N(C)C)CC3)nc3c(CC)cnn23)c1 [SB1-E-17, N-(3-(2-((1r,4r)-4-(Dimethylamino)cyclohexylamino)-8-ethylpyrazolo[1,5-a][1,3,5]triazin-4-ylamino)phenyl)acrylamide]
Pulldown of Cyclin H by biotin-THZ1 (CDK7 binding) (CDK7): not able to bind to CDK7 | Loss of sensitivity of CDK12 C1039S/CDK13 C1017S HAP1 cells compared to wild type HAP1 cells (HAP1 cells): 4 fold | Pulldown of Cyclin K by biotin-THZ1 (CDK12 binding) (CDK12): blocks the pulldown of Cyclin K | Inhibition of Jurkat cell viability with and without washout (Jurkat cells [1]): irreversibly inhibit Jurkat cell viability | IC50 (CDK2/CycA): 247 nM | Mode of inhibition of Jurkat T-ALL cell proliferation (Jurkat cells [2]): irreversiably inhibit | IC50 (Jurkat cells [2]; 72 h, CellTiter-Glo, read-out: IC50 on Jurkat T-ALL cell proliferation): < 100 nM | IC50 (Jurkat cells [2]; read-out: Jurkat IC50): 60.6 nM | IC50 (CDK9/CycT): 171 nM | Effect on Polymerase II Serine 2 phosphorylation and MCL1 levels with and without washout [3]: irreversible effect | IC50 (CDK7/CycH): 1020 nM
